Test results published in patent US20200237736A1, “METHODS FOR PREVENTING OR TREATING CANCER RESISTANCE TO EGFR INHIBITION” (INSERM (INSTITUT NATIONAL DE LA SANTE ET DE LA RECHERCHE …, priority 2017, published 2020).

Assays:
EGFR = assay: Immunoblot, EGFR expression in PC9 cells; format: cell-based; conditions: 3 days, sorafenib 5 μM or SC-1 20 μM, FIG. 11B
Method: The fraction of the EGFR-T790T and EGFR-T790M barcodes was assessed by qPCR and normalized to the total amount of gDNA using EGFR_Ctrl primers.

STAT3 phosphorylation [1] = assay: Immunoblot, STAT3 phosphorylation in PC9 cells; format: cell-based; conditions: for STATS phosphorylation: PC9 cells, 3 days, sorafenib 5 μM or SC-1 20 μM, FIG. 11B
Method: (§1) Immunoblot was performed using the indicated antibodies.
FIG. 11: SC-1 prevents resistance of NSCLC cells to EGFR TKI. […] The mean values (±SEM) representative of four independent experiments are represented. (B).
(§2) Cells were washed once with phosphate-buffered saline (PBS) and lysed on ice in a buffer containing 50 mM Hepes pH 7.6, 150 mM NaCl, 5 mM EDTA, 1% Nonidet P-40, 20 mM NAF, 2 mM sodium orthovanadate, supplemented with protease inhibitor mini tablets (Thermo Scientific). Lysates were cleared by centrifugation at 14,000 g during 15 min at 4° C. and protein concentrations were determined by using the Bradford protein assay (Bio-Rad). Sodium dodecyl sulfate (SDS) loading buffer was added to equal amounts of lysate, followed by SDS-polyacrylamide gel electrophoresis (SDS-PAGE) and transfer to polyvinylidene fluoride (PVDF) membrane (Thermo Scientific). Membranes were analyzed by chemiluminescence using a ChemiDoc imaging system (Biorad). All primary antibodies were purchased from Cell Signaling. Secondary antibodies were purchased from Santa Cruz.

STAT3 phosphorylation [2] = conditions: different cell models, including EGFR-wild type NSCLC cells; Su et al., 2015; Wang et al., 2014; cited from earlier work
kinase = conditions: cited from earlier work
breast cancer cell lines = conditions: Liu et al. 2013; cited from earlier work
[3] = tested on: PC9 cells containing the EGFR-T790M mutation; assay: CRISPR-barcoding qPCR: fraction of EGFR-T790M barcode in PC9 cells in the presence of gefitinib; format: cell-based; conditions: SC-1 20 μM, gefitinib 1 μM, 5 days; FIG. 11A
Description: (§3) Cells were transfected with a Nucleofector II device (Lonza) using the Amaxa Nucleofector kit (Lonza) and electroporation program recommended by the manufacturer.
(§4) The set of silent mutations is designed to enable PCR specificity and to avoid recognition by the corresponding sgRNA used to cleave the endogenous sequence. […] Immediately after transfection, the cells were pooled in the same flask.
(§5) gDNA was extracted using the NucleoSpin Tissue kit (Macherey-Nagel). To avoid potential amplification from ssODN molecules not integrated in the correct genomic locus, one of the two primers was designed to target the endogenous genomic sequence flanking the region sharing homology with the ssODNs.
as §3, §4

[4] = tested on: EGFR wild-type NSCLC cell lines; conditions: Wang et al 2014; cited from earlier work
[5] = tested on: EGFR-wild type NSCLC cells; conditions: different cell models, including EGFR-wild type NSCLC cells; Su et al., 2015; Wang et al., 2014; cited from earlier work
NSCLC [6] = conditions: treatment of NSCLC; Shepherd et al 2005; cited from earlier work
[7] = tested on: parental, EGFR-T790M and EGFR-T790M/C797S PC9 cells
[8] = tested on: EGFR-C797S cells within PC9-(EGFR-T790M) cells; assay: CRISPR-barcoding qPCR: EGFR-C797S barcode in PC9-(EGFR-T790M) cells; format: cell-based; conditions: osimertinib 1 μM alone, nine days; FIG. 3A
Description: as §4, §5

[9] = tested on: EGFR-T790M PC9 cells containing the EGFR-C797S CRISPR-barcode; conditions: mouse, in vivo
Method: From day 39, the mice were treated three times per week. The mean tumor size ±SEM is represented for the different groups (5 mice per group).
The proportions of the barcode in the cells prior to mouse injection was analyzed in parallel and arbitrarily set to 1. (B) For each group, the mean of the values (±SEM) shown in A is represented.
Gefitinib resistant PC9 cells (EGFR-T790M) containing the EGFR-C797 CRISPR-barcodes were mixed with matrigel and subcutaneously inoculated in the left and right flank (2×10^6 cells per site) of male SCID mice. The size of the tumors was measured by caliper every 3-4 days. […] From day 39, the mice were treated three times per week. Tumors from sacrificed mice were dissected, and gDNA was derived using the DNeasy Blood & Tissue Kit (Qiagen).

[10] = tested on: EGFR-C797S cells within PC9-(EGFR-T790M) cells; assay: Colony forming assay, EGFR-C797S barcoded PC9-(EGFR-T790M) cells; format: cell-based; conditions: osimertinib 1 μM alone, 14 days; FIG. 3B
NSCLC [11] = conditions: first-line treatment; Soria et al. 2018; cited from earlier work
MAPK activation = assay: Immunoblot, MAPK activation in PC9 cells; format: cell-based; conditions: sorafenib 5 μM, 2 or 6 hours; FIG. 4A
Method: as §1, §2

MYC transcription factor = assay: Immunoblot, MYC expression in PC9 cells; format: cell-based; conditions: sorafenib 5 μM, two days; parental and EGFR-T790M PC9 cells; FIG. 4B
Method: as §1, §2

N#Cc1ccc(Oc2ccc(NC(=O)Nc3ccc(Cl)c(C(F)(F)F)c3)cc2)cc1 [SC-1, N-[4-Chloro-3-(trifluoromethyl)phenyl]-N′-[4-(4-cyanophenoxy)phenyl]-urea]
EGFR expression (EGFR): down-regulated
STATS phosphorylation (STAT3 phosphorylation [1]): inhibited
pSTAT3 inhibition (STAT3 phosphorylation [2]): pSTAT3 inhibition
kinase-inhibition activity (kinase): no kinase-inhibition activity
apoptosis (breast cancer cell lines): induces apoptosis
amplification of EGFR-T790M containing cells in the presence of gefitinib (qPCR) [3]: could mimic the effects of sorafenib
apoptosis [4]: induces apoptosis
growth inhibition [5]: growth inhibition

C#Cc1cccc(Nc2ncnc3cc(OCCOC)c(OCCOC)cc23)c1 [erlotinib]
clinical response rate (NSCLC [6]): about 8.9%

C=CC(=O)Nc1cc(Nc2nccc(-c3cn(C)c4ccccc34)n2)c(OC)cc1N(C)CCN(C)C [osimertinib]
cell growth (colony forming assay) [7]: inhibited cell growth
amplification of EGFR-C797S cells (qPCR) [8]: induced a strong amplification
growth of the tumors / tumor size [9]: initially inhibited, but it eventually resumed after a few weeks
amplification of EGFR-C797S cells (colony forming assay) [10]: induced a strong amplification
adverse effects compared to first/second generation TKIs (NSCLC [11]): less severe adverse effects
efficacy compared to first/second generation TKIs (NSCLC [11]): superior efficacy

CNC(=O)c1cc(Oc2ccc(NC(=O)Nc3ccc(Cl)c(C(F)(F)F)c3)cc2)ccn1 [sorafenib]
STATS phosphorylation (STAT3 phosphorylation [1]): inhibited
STAT3 phosphorylation (STAT3 phosphorylation [1]; sorafenib 5 μM, 2 or 6 hours, FIG. 4): rapid inhibition
MAPK activation (MAPK activation): no effect
expression of MYC transcription factor (MYC transcription factor): down-regulated
